Values of other authors in Sander's compilation of Henry's law constants (doi:10.1016/s0016-7037(99)00330-0).

Experiment: Henry solubility constant Hcp at 298.15 K (mol/(m3 Pa))
Settings: reference: Plyasunov and Shock (2000); cited value

Henry solubility constant Hcp	SMILES
0.71	CCC(C)CO (stereo not drawn) [2-methyl-1-butanol]
5.6e-05	C=CC [propene]
3.4e-05	CC(C)(C)C#CC(C)(C)C [2,2,5,5-tetramethyl-3-hexyne]
0.0026	Cc1cccc(C)c1C [1,2,3-trimethylbenzene]
0.99	CCC(C)O (stereo not drawn) [2-butanol]
0.00096	Cc1ccc(C(C)C)cc1 [1-methyl-4-(1-methylethyl)-benzene]
5.7e-05	C=C(C)C [2-methylpropene]
9.3e-05	C1CCCCCCC1 [cyclooctane]
1.2	CC(C)O [2-propanol]
0.0046	C#CCCCC#C [1,6-heptadiyne]
0.0014	Cc1cccc(C(C)C)c1 [1-methyl-3-(1-methylethyl)-benzene]
9.3e-07	CCCCCCCCCCCCCC [tetradecane]
6.9e-06	CCCCCC [hexane]
5.3e-06	CCCCCC1CCCC1 [pentylcyclopentane]
1.1e-06	CCCCCCCCCC [decane]
7.6e-06	CC(C)C(C)C [2,3-dimethylbutane]
0.38	CC(C)C(C)(C)O [2,3-dimethyl-2-butanol]
9.7e-07	CCCCC(C)CCC (stereo not drawn) [4-methyloctane]
5.6e-06	CCC(C)(C)C [2,2-dimethylbutane]
0.0018	c1ccccc1 [benzene]
5.7e-06	CCCC(C)C [2-methylpentane]
4.9e-05	CC1(C)C2CC3C(C2)C31C [tricyclene]
0.54	CCC(CC)CO [2-ethyl-1-butanol]
0.00049	CC#CCCCC [2-heptyne]

Henry solubility constant Hcp	SMILES
0.00079	CC1=CCC(=C(C)C)CC1 [1-methyl-4-(1-methylethylidene)-cyclohexene]
5.5e-05	C1CCCC1 [cyclopentane]
0.00079	CC(C)(C)c1ccccc1 [(1,1-dimethylethyl)-benzene]
0.00084	CC(C)c1ccccc1 [(2-propyl)-benzene]
0.00018	CC1=CCC(C(C)C)C=C1 (stereo not drawn) [α-phellandrene]
5.3e-05	C1CCCCC1 [cyclohexane]
0.00075	C#CC [propyne]
5.7e-06	CCC(C)C(C)C (stereo not drawn) [2,3-dimethylpentane]
4.3e-06	CC(C)C(C)C(C)C [2,3,4-trimethylpentane]
0.00014	CCC#CC(C)(C)C [2,2-dimethyl-3-hexyne]
2.9e-06	CCCCC(C)C [2-methylhexane]
0.34	CCCC(O)CCC [4-heptanol]
0.66	CCCCCCO [1-hexanol]
4e-06	CCCCCCCC [octane]
2.8e-06	CC(C)CCC(C)(C)C [2,2,5-trimethylhexane]
3e-06	CC(C)CC(C)(C)C [2,2,4-trimethylpentane]
0.00053	CCC(C)c1ccccc1 (stereo not drawn) [(1-methylpropyl)-benzene]
0.00055	CCC#CCC [3-hexyne]
0.00047	C=C(C)C1CC=C(C)CC1 (stereo not drawn) [1-methyl-4-(1-methylethenyl)-cyclohexene]
9.3e-06	CC1CCCC(C)(C)C1 (stereo not drawn) [1,1,3-trimethylcyclohexane]
2.8e-05	CC1CCCC1 [methylcyclopentane]
4.9e-06	CCCCCCC [heptane]
0.41	CCCCCC(C)O (stereo not drawn) [2-heptanol]
4.2e-05	C=CCC [1-butene]

Henry solubility constant Hcp	SMILES
0.89	CCCCCO [1-pentanol]
0.00022	CCC#CC(C)C [2-methyl-3-hexyne]
0.0029	C=Cc1ccccc1 [ethenylbenzene]
0.0001	C1CCCCCC1 [cycloheptane]
0.85	CC(C)CO [2-methyl-1-propanol]
4.6	OC1CCCCCC1 [cycloheptanol]
1.2e-05	C=CCCCCCCC [1-nonene]
0.00012	C1CC1 [cyclopropane]
1.5	CCCO [1-propanol]
0.00018	C1=CCC=C1 [1,3-cyclopentadiene]
0.0013	CCc1ccccc1 [ethylbenzene]
2.4e-05	C=CCCC [1-pentene]
1.9e-05	C=CC(C)C [3-methyl-1-butene]
2.8e-05	C[C@@H]1CCCC[C@@H]1C [cis-1,2-dimethylcyclohexane]
0.00051	CC1=CC=C(C(C)C)CC1 [1-methyl-4-(1-methylethyl)-1,3-cyclohexadiene]
0.7	CC(C)CCO [3-methyl-1-butanol]
0.41	CCCCCCCCO [1-octanol]
0.00041	C#CC=C [3-buten-1-yne]
0.0002	C1=CCCCCC1 [cycloheptene]
0.35	CC(C)CC(C)O (stereo not drawn) [4-methyl-2-pentanol]
0.00016	C1=CCCC1 [cyclopentene]
0.55	CCC(O)CC [3-pentanol]
1.2e-05	CCCC [butane]
2.4e-05	CC1CCCCC1 [methylcyclohexane]

Henry solubility constant Hcp	SMILES
5.3e-06	CCC(C)(C)CC [3,3-dimethylpentane]
5.6e-05	C=CCCCC=C [1,6-heptadiene]
9.2e-06	CC(C)C [2-methylpropane]
2.1e-06	CCCCCCCCC [nonane]
5.9e-06	CCC(C)CC [3-methylpentane]
0.54	CCCCCCCO [1-heptanol]
4.5e-06	CCCC(C)CC (stereo not drawn) [3-methylhexane]
0.42	CCCC(O)CC (stereo not drawn) [3-hexanol]
4.2	OC1CCCC1 [cyclopentanol]
0.00015	C=C1CCC2(C(C)C)CC12 (stereo not drawn) [4-methylene-1-(1-methylethyl)-bicyclo[3.1.0]hexane]
0.0004	C=CC(=C)CCC=C(C)C [7-methyl-3-methylene-1,6-octadiene]
0.0022	C1=CC=CCC=C1 [1,3,5-cycloheptatriene]
8.6e-05	CCCCCCCCCCc1ccccc1 [decylbenzene]
3.1e-06	CCCC(C)(C)C [2,2-dimethylpentane]
2.5e-05	C=CCCCCC [1-heptene]
0.00022	C1=CCCCC1 [cyclohexene]
2.7e-06	CCCCC(C)CC (stereo not drawn) [3-methylheptane]
0.00012	C#CCCCCCC [1-octyne]
0.35	CCCCCCC(C)O (stereo not drawn) [2-octanol]
0.00051	CCCCCc1ccccc1 [pentylbenzene]
9.7e-05	C#CCCCCCCC [1-nonyne]
0.31	CCCCC(O)CC (stereo not drawn) [3-heptanol]
0.00018	C#CCCCCC [1-heptyne]
6.7e-05	CC=C(C)C [2-methyl-2-butene]

Henry solubility constant Hcp	SMILES
0.00091	CCCc1ccccc1 [propylbenzene]
0.0004	CCCCCCc1ccccc1 [hexylbenzene]
1.2e-06	CCCCCCCCCCCC [dodecane]
1.1e-05	C[C@H]1CC[C@H](C)CC1 [trans-1,4-dimethylcyclohexane]
4.8e-05	C=C [ethene]
7.7e-06	CCC(C)C [2-methylbutane]
1.5e-05	C=CCC(C)C [4-methyl-1-pentene]
0.0016	Cc1ccc(C)c(C)c1 [1,2,4-trimethylbenzene]
3.3e-06	CC(C)CC(C)C [2,4-dimethylpentane]
0.0016	Cc1ccccc1C(C)C [1-methyl-2-(1-methylethyl)-benzene]
0.00062	C#CCC [1-butyne]
5.5e-05	CC(C)C#CC(C)(C)C [2,2,5-trimethyl-3-hexyne]
0.52	CCCCC(C)O (stereo not drawn) [2-hexanol]
2.3e-05	CC=CCCCC [2-heptene]
6e-06	CC(C)(C)C [dimethylpropane]
0.003	C#CCCCCCC#C [1,8-nonadiyne]
1.1e-05	C=CCCCCCC [1-octene]
0.001	C1=CCC=CC1 [1,4-cyclohexadiene]
0.46	CCCCC(CC)CO (stereo not drawn) [2-ethyl-1-hexanol]
0.0003	C#CCCCC [1-hexyne]
3.3e-05	C=C(C)CCC [2-methyl-1-pentene]
0.00023	C=C1C2CCC(C2)C1(C)C (stereo not drawn) [2,2-dimethyl-3-methylene-bicyclo[2.2.1]heptane]

SMILES	Henry solubility constant Hcp
CCCCc1ccccc1 [butylbenzene]	0.00071
Cc1ccccc1C [1,2-dimethylbenzene]	0.002
CCC(O)(CC)CC [3-ethyl-3-pentanol]	0.3
C=CC(=C)C [2-methyl-1,3-butadiene]	0.00013
Cc1ccc(C)cc1 [1,4-dimethylbenzene]	0.0014
Cc1cccc(C)c1 [1,3-dimethylbenzene]	0.0014
CCC(C)(C)O [2-methyl-2-butanol]	0.71
C=CC=C [1,3-butadiene]	0.00014
c1ccc2c(c1)CCCC2 [1,2,3,4-tetrahydronaphthalene]	0.0064
Cc1ccccc1 [methylbenzene]	0.0016
